Patent US11078194B2, “Salt form and crystal form serving as FGFR and VEGFR inhibitor compounds, and preparation method therefor” (HARBIN ZHENBAO PHARMACEUTICAL CO., LTD., priority 2017, dated 2021)
Like-named read-outs stand apart in the source and are kept apart here.

Experiment: Solubility test of compounds of formula (I)-(IV) in 4 vehicles (water, SGF, FaSSIF, FeSSIF), HPLC
Assay type: physicochemical
Details: for solubility at 4 h / solubility at 24 h: thermodynamic from solid; for solubility at 4 h: 4 hours stirring, read-out: Solubility (μg/mL)_4 hours; for solubility at 24 h: 24 hours stirring, read-out: Solubility (μg/mL)_24 hours
Protocol: About 5 mg of the compound of formula (I) was weighed accurately, and placed in a sample bottle. 10 mL of acetonitrile was added. The mixture was sonicated for 5 minutes, cooled to room temperature, and well mixed. Two control sample solutions were prepared in parallel, and labeled as STD-1 and STD-2, respectively.
The control sample solution STD-1 was serially diluted 1, 5, 10, 100 and 1000 times and labeled as linear solutions L1, L2, L3, L4 and L5.
The solubility of the compound of formula (I) and its salt in 4 vehicles with different pH were tested. About 10 mg of the compounds of formula (I)-(IV) were weighed respectively, then 5.0 mL of different vehicles (water, SGF, FaSSIF, FeSSIF) were added thereto, respectively, and well mixed to obtain suspensions. Magnetic stir bars were added into the suspensions, and the suspensions were placed on a magnetic stirrer for stirring. After stirring for 2 hours, 4 hours, and 24 hours, the samples were collected and centrifuged. The residual solid samples in the lower layer were detected by XRPD. The concentrations of the samples in the upper layer were determined by HPLC, and the pH value of the samples were also detected.
(§1) FaSSIF: (1) 0.042 g of sodium hydroxide, 0.3438 g of sodium dihydrogen phosphate and 0.6186 g of sodium chloride were weighed, and 90 mL of purified water was added and well mixed. The pH value of the obtained solution were adjusted to 6.5 with 1 N hydrochloric acid or 1 N sodium hydroxide, and the solution were diluted with purified water to a final volume of 100 mL. (2) 50 mL of the above buffer solution was taken, followed by addition of 0.224 g of commercially available FaSSIF/FeSSIF/FaSSGF powder (Biorelevant.com). The buffer solution was stirred until dissolved, and diluted with purified water to a final volume of 100 mL. The buffer solution was placed at room temperature.
as §1, with “FeSSIF:” for “FaSSIF:”, “0.404” for “0.042”, “0.865” for “0.3438”, “glacial acetic acid, 1.1874” for “sodium dihydrogen phosphate and 0.6186”, “5.0” for “6.5”, “1.12” for “0.224”
FaSSGF (SGF): (1) 0.2 g of sodium chloride was added to 90 mL of purified water and mixed well. The pH value thereof was adjusted to 1.8 with 1 N hydrochloric acid and the solution diluted with purified water to a final volume of 100 mL. The obtained solution was allowed to stand at room temperature.

[1] = FaSSIF, pH 6.5, fassif, vehicle FaSSIF
[2] = FeSSIF, pH 5, fessif, vehicle FeSSIF
[3] = SGF (FaSSGF), pH 1.8, simulated gastric fluid, vehicle SGF
[4] = pH of sample in FaSSIF (vehicle pH 6.62)
[5] = pH of sample in FeSSIF (vehicle pH 4.59)
[6] = pH of sample in H2O (vehicle pH 8.23)
[7] = pH of sample in SGF (vehicle pH 1.57)
[8] = water, pH 8.23, water, vehicle H2O

| SMILES | solubility at 4 h [1] | solubility at 24 h [1] | solubility at 4 h [2] | solubility at 24 h [2] | solubility at 4 h [3] | solubility at 24 h [3] | pH (4 hours) [4] | pH (24 hours) [4] | pH (4 hours) [5] | pH (24 hours) [5] | pH (4 hours) [6] | pH (24 hours) [6] | pH (4 hours) [7] | pH (24 hours) [7] | solubility at 4 h [8] | solubility at 24 h [8] |
| --- | --- | --- | --- | --- | --- | --- | --- | --- | --- | --- | --- | --- | --- | --- | --- | --- |
| C[C@@H](Oc1ccc2[nH]nc(/C=C(\F)c3ccc(CNC4CCOCC4)nc3)c2c1)c1c(Cl)cncc1Cl.O=C(O)CC(O)(CC(=O)O)C(=O)O [compound of formula (III)] | 910 µg/mL | 942 µg/mL | 2370 µg/mL | 2230 µg/mL | 2420 µg/mL | 16.8 µg/mL | 6.43 | 6.33 | 4.96 | 4.97 | 5.60 | 5.47 | 2.09 | 2.08 | 99.5 µg/mL | 184 µg/mL |
| C[C@@H](Oc1ccc2[nH]nc(/C=C(\F)c3ccc(CNC4CCOCC4)nc3)c2c1)c1c(Cl)cncc1Cl.O=C(O)C[C@H](O)C(=O)O [compound of formula (IV)] | 1130 µg/mL | 824 µg/mL | 2410 µg/mL | 2280 µg/mL | 2470 µg/mL | 43.3 µg/mL | 6.26 | 6.27 | 4.95 | 4.95 | 6.93 | 6.46 | 2.09 | 2.09 | 7.4 µg/mL | 19.3 µg/mL |
